Test results from PubChem BioAssay AID1963860 (Molecular Pharmacology Branch, DTP, NCI, 2024).
pIC50: −log10 of the molar value.

Test system: CN0375-F725-PDC KRAS spheroid viability
Test: Anticancer human tumor CN0375-F725-PDC patient-derived colon carcinoma cell line growth inhibition [KRAS2]
Details: spheroids with HUVEC and MSC; for pIC50: curve of first compound; for viability, T/C: stronger effect = lower value
Outline: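 KRAS-mutant tumor cells were grown as spheroids with HUVEC endothelial cells and human MSCs as stroma. Targeted agents were tested alone and with KRAS pathway inhibitors. Doses started at or near clinical Cmax, or 10 microM, descending half-log.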
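Note: spheroids exposed to agents for 7 days.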

CC(C)NCC(C(=O)N1CCN(c2ncnc3c2C(C)CC3O)CC1)c1ccc(Cl)cc1 (stereo not given) + C=CC(=O)N1CCN(c2nc(=O)n(-c3c(C)ccnc3C(C)C)c3nc(-c4c(O)cccc4F)c(F)cc23)C(C)C1
pIC50 (second compound 0.1 µM): < 5.00 | pIC50 (second compound 0.316 µM): < 5.00 | pIC50 (second compound 1 µM): < 5.00 | pIC50 (second compound 3.16 µM): < 5.00 | pIC50 (second compound 10 µM): < 5.00 | viability, T/C (second compound 0.1 µM, first compound 0.0316 µM): 108% | viability, T/C (second compound 0.1 µM, first compound 0.1 µM): 106% | viability, T/C (second compound 0.1 µM, first compound 0.316 µM): 91.4% | viability, T/C (second compound 0.1 µM, first compound 1 µM): 88.9% | viability, T/C (second compound 0.1 µM, first compound 3.16 µM): 87.8% | viability, T/C (second compound 0.1 µM, first compound 10 µM): 80.1% | viability, T/C (second compound 0.316 µM, first compound 0.0316 µM): 102% | viability, T/C (second compound 0.316 µM, first compound 0.1 µM): 105% | viability, T/C (second compound 0.316 µM, first compound 0.316 µM): 92.4% | viability, T/C (second compound 0.316 µM, first compound 1 µM): 89% | viability, T/C (second compound 0.316 µM, first compound 3.16 µM): 89.6% | viability, T/C (second compound 0.316 µM, first compound 10 µM): 75.9% | viability, T/C (second compound 1 µM, first compound 0.0316 µM): 103% | viability, T/C (second compound 1 µM, first compound 0.1 µM): 110% | viability, T/C (second compound 1 µM, first compound 0.316 µM): 98.8% | viability, T/C (second compound 1 µM, first compound 1 µM): 86.3% | viability, T/C (second compound 1 µM, first compound 3.16 µM): 84.4% | viability, T/C (second compound 1 µM, first compound 10 µM): 77% | viability, T/C (second compound 3.16 µM, first compound 0.0316 µM): 106% | viability, T/C (second compound 3.16 µM, first compound 0.1 µM): 111% | viability, T/C (second compound 3.16 µM, first compound 0.316 µM): 101% | viability, T/C (second compound 3.16 µM, first compound 1 µM): 87.7% | viability, T/C (second compound 3.16 µM, first compound 3.16 µM): 84.2% | viability, T/C (second compound 3.16 µM, first compound 10 µM): 73% | viability, T/C (second compound 10 µM, first compound 0.0316 µM): 101% | viability, T/C (second compound 10 µM, first compound 0.1 µM): 95.7% | viability, T/C (second compound 10 µM, first compound 0.316 µM): 88.7% | viability, T/C (second compound 10 µM, first compound 1 µM): 72% | viability, T/C (second compound 10 µM, first compound 3.16 µM): 71.9% | viability, T/C (second compound 10 µM, first compound 10 µM): 55.7%
